Experimental findings from PubChem BioAssay AID2060900 (Molecular Pharmacology Branch, DTP, NCI, 2025) are described below.

Where “and” joins values, the source holds several entries; their conditions need not be identical. Equal entries are not always repeated.

The assay relates to 521955-158-R2-J5-PDC complex spheroids, viability. In words: Anticancer human tumor 521955-158-R2-J5-PDC patient-derived pancreatic carcinoma cell line growth inhibition [RAS]. As to conditions: for viability, T/C: stronger effect = lower value. The method, boiled down:
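Multi-cell-type spheroids: tumor cells plus HUVEC endothelial cells and mesenchymal stem cells. RAS-pathway inhibitors were combined with targeted agents, each dosed in half-log steps down from clinical Cmax, or from 10 microM when Cmax was unknown.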
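Also: compound exposure lasted seven days before the viability read.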
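For viability, T/C in this document: spheroids also contain HUVEC endothelial cells and mesenchymal stem cells as stroma.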

With `CC(C)NCC(C(=O)N1CCN(c2ncnc3c2C(C)CC3O)CC1)c1ccc(Cl)cc1` (stereo not given) + CCn1c(-c2cccnc2C(C)OC)c2c3cc(ccc31)N1CCOC(CC(NC(=O)C(C(C)C)N(C)C(=O)C3(F)CCN(C(=O)C#CC(C)(C)N(C)C)CC3)C(=O)N3CCCC(N3)C(=O)OCC(C)(C)C2)C1, the IC50 is, setting by setting: (curve of first compound, second compound 0.000949 µM) > 10 µM; (curve of first compound, second compound 0.003 µM) > 10 µM; (curve of first compound, second compound 0.00949 µM) > 10 µM; (curve of first compound, second compound 0.03 µM) > 10 µM; (curve of first compound, second compound 0.0949 µM) > 10 µM; (curve of first compound, second compound 0.3 µM) 8.61 µM. The viability, T/C is, setting by setting: (second compound 0.000949 µM, first compound 0.0316 µM) 84.8%; (second compound 0.000949 µM, first compound 0.1 µM) 85.3%; (second compound 0.000949 µM, first compound 0.316 µM) 84.9%; (second compound 0.000949 µM, first compound 1 µM) 62.7%; (second compound 0.000949 µM, first compound 3.16 µM) 68%; (second compound 0.000949 µM, first compound 10 µM) 72%. Besides, the viability, T/C runs as follows: (second compound 0.003 µM, first compound 0.0316 µM) 81.6%; (second compound 0.003 µM, first compound 0.1 µM) 92.5%; (second compound 0.003 µM, first compound 0.316 µM) 77.4%; (second compound 0.003 µM, first compound 1 µM) 56.1%; (second compound 0.003 µM, first compound 3.16 µM) 62.4%; (second compound 0.003 µM, first compound 10 µM) 79.1%. Moreover, the viability, T/C reads like this: (second compound 0.00949 µM, first compound 0.0316 µM) 88.7%; (second compound 0.00949 µM, first compound 0.1 µM) 91.7%; (second compound 0.00949 µM, first compound 0.316 µM) 78.7%; (second compound 0.00949 µM, first compound 1 µM) 53%; (second compound 0.00949 µM, first compound 3.16 µM) 60.1%; (second compound 0.00949 µM, first compound 10 µM) 68%. The viability, T/C reads like this: (second compound 0.03 µM, first compound 0.0316 µM) 83.9%; (second compound 0.03 µM, first compound 0.1 µM) 100%; (second compound 0.03 µM, first compound 0.316 µM) 83%; (second compound 0.03 µM, first compound 1 µM) 57.5%; (second compound 0.03 µM, first compound 3.16 µM) 68.3%; (second compound 0.03 µM, first compound 10 µM) 56.8%. In addition, the viability, T/C reads like this: (second compound 0.0949 µM, first compound 0.0316 µM) 93.6%; (second compound 0.0949 µM, first compound 0.1 µM) 92%; (second compound 0.0949 µM, first compound 0.316 µM) 82.4%; (second compound 0.0949 µM, first compound 1 µM) 64.3%; (second compound 0.0949 µM, first compound 3.16 µM) 61.3%; (second compound 0.0949 µM, first compound 10 µM) 59.9%. Further, the viability, T/C is 67.2% (second compound 0.3 µM, first compound 0.0316 µM); 76.6% (second compound 0.3 µM, first compound 0.1 µM); 67.9% (second compound 0.3 µM, first compound 0.316 µM); 57.2% (second compound 0.3 µM, first compound 1 µM); 57.4% (second compound 0.3 µM, first compound 3.16 µM); 49.6% (second compound 0.3 µM, first compound 10 µM).
As to `Nc1ccn(C2OC(CO)C(O)C2(F)F)c(=O)n1` (stereo not given) + C#Cc1c(F)ccc2cc(O)cc(-c3ncc4c(N5CC6CCC(C5)N6)nc(OCC56CCCN5CC(F)C6)nc4c3F)c12, the IC50 (curve of first compound, second compound 0.0316 µM) is < 0.00316 µM; the half-maximal inhibitory concentration (IC50) (curve of first compound, second compound 0.1 µM) is < 0.00316 µM; the IC50 (curve of first compound, second compound 0.316 µM) is < 0.00316 µM; the IC50 (curve of first compound, second compound 1 µM) turned out to be 0.00368 µM; the concentration for half-maximal inhibition (IC50) (curve of first compound, second compound 3.16 µM) is < 0.00316 µM; the IC50 (curve of first compound, second compound 10 µM) is < 0.00316 µM. For the same compound, the viability, T/C was 48.8% (second compound 0.0316 µM, first compound 0.00316 µM); 39.5% (second compound 0.0316 µM, first compound 0.01 µM); 32.6% (second compound 0.0316 µM, first compound 0.0316 µM); 24.9% (second compound 0.0316 µM, first compound 0.1 µM); 24.1% (second compound 0.0316 µM, first compound 0.316 µM); 18.5% (second compound 0.0316 µM, first compound 1 µM). Further, the viability, T/C (second compound 0.1 µM, first compound 0.00316 µM) was 44.5%; the viability, T/C (second compound 0.1 µM, first compound 0.01 µM) is 44.9%; the viability, T/C (second compound 0.1 µM, first compound 0.0316 µM) is 28.8%; the viability, T/C (second compound 0.1 µM, first compound 0.1 µM) was 20.9%; the viability, T/C (second compound 0.1 µM, first compound 0.316 µM) was 21%; the viability, T/C (second compound 0.1 µM, first compound 1 µM) is 15.4%. For the same compound, the viability, T/C reads like this: (second compound 0.316 µM, first compound 0.00316 µM) 43.3%; (second compound 0.316 µM, first compound 0.01 µM) 42.9%; (second compound 0.316 µM, first compound 0.0316 µM) 28.8%; (second compound 0.316 µM, first compound 0.1 µM) 23.4%; (second compound 0.316 µM, first compound 0.316 µM) 17.4%; (second compound 0.316 µM, first compound 1 µM) 17.8%. In addition, the viability, T/C reads like this: (second compound 1 µM, first compound 0.00316 µM) 52.4%; (second compound 1 µM, first compound 0.01 µM) 34.6%; (second compound 1 µM, first compound 0.0316 µM) 27.7%; (second compound 1 µM, first compound 0.1 µM) 16.4%; (second compound 1 µM, first compound 0.316 µM) 15.3%; (second compound 1 µM, first compound 1 µM) 14%. Moreover, the viability, T/C is, setting by setting: (second compound 3.16 µM, first compound 0.00316 µM) 48.5%; (second compound 3.16 µM, first compound 0.01 µM) 41.6%; (second compound 3.16 µM, first compound 0.0316 µM) 27.5%; (second compound 3.16 µM, first compound 0.1 µM) 20.8%; (second compound 3.16 µM, first compound 0.316 µM) 15%; (second compound 3.16 µM, first compound 1 µM) 13%. The viability, T/C is, setting by setting: (second compound 10 µM, first compound 0.00316 µM) 35.9%; (second compound 10 µM, first compound 0.01 µM) 32.7%; (second compound 10 µM, first compound 0.0316 µM) 20.8%; (second compound 10 µM, first compound 0.1 µM) 20.4%; (second compound 10 µM, first compound 0.316 µM) 13.4%; (second compound 10 µM, first compound 1 µM) 9.08%.
Consider `C=CC(=O)Nc1cc(Nc2nccc(-c3cn(C)c4ccccc34)n2)c(OC)cc1N(C)CCN(C)C`, for which the viability, T/C is 101% [middle of 4 runs] (compound 0.00316 µM), 94.7% [middle of 4 runs] (compound 0.0316 µM) and 79.1% [middle of 4 runs] (compound 0.1 µM). In addition, the IC50 (curve of compound) was 0.965 µM and 0.466 µM and > 1 µM.
For the compound `Cc1nc(N2CCC3(CC2)COC(C)C3N)c(CO)nc1Sc1ccnc(N)c1Cl` (stereo not given), the viability, T/C was 85.6% [middle of 4 runs] (compound 0.0316 µM); 71.7% [middle of 4 runs] (compound 0.1 µM); 69.2% [middle of 4 runs] (compound 0.316 µM); 67.1% [middle of 4 runs] (compound 1 µM); 67% [middle of 4 runs] (compound 3.16 µM); 57% and 57.9% (2×) and 51.2% (compound 10 µM). Also, the IC50 (curve of compound) was > 10 µM.

Usually IC50 stands for the concentration at which inhibition is half-maximal. As a reminder, the viability, T/C is the ratio of treated to control.
